From ChEMBL document CHEMBL3817774, “Pterostilbene-mediated Nrf2 activation: Mechanistic insights on Keap1:Nrf2 interface” (Bioorg Med Chem, 2016)

What was measured:
Assay type in all cases: cell-based
[1] = molecular target: T1, Nuclear factor erythroid 2-related factor 2 (Mus musculus) (UniProt Q60795); assay: Activation of Nrf2 in mouse MIN6 cells assessed as increase in nuclear Nrf2 translocation by Western blot analysis
T1 sequence (whole entry): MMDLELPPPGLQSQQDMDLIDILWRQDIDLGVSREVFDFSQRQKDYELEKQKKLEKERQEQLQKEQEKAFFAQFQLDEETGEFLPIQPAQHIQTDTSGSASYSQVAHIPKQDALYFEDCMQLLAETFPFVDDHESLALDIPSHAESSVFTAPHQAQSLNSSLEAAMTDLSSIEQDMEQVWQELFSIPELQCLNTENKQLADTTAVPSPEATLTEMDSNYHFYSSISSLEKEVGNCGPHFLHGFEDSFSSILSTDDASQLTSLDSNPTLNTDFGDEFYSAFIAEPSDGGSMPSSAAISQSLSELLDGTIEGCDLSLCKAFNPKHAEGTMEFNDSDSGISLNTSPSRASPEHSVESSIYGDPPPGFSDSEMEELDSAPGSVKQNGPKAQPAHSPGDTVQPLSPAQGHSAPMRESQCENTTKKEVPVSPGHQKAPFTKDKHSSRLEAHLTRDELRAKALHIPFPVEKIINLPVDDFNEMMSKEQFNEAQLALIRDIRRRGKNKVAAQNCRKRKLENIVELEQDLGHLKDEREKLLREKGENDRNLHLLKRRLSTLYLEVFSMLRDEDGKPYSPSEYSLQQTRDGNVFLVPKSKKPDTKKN

[2] = molecular target: T1, Nuclear factor erythroid 2-related factor 2 (Mus musculus); assay: Activation of Nrf2 in mouse MIN6 cells assessed as decrease in cytoplasmic Nrf2 fraction by Western blot analysis
[3] = molecular target: T1, Nuclear factor erythroid 2-related factor 2 (Mus musculus); assay: Activation of Nrf2 in mouse MIN6 cells assessed as upregulation of human NQO1-ARE-luciferase incubated for 8 hrs by luminometric assay relative to control
[4] = molecular target: T1, Nuclear factor erythroid 2-related factor 2 (Mus musculus); assay: Activation of Nrf2 in mouse MIN6 cells assessed as upregulation of GST1-ARE-luciferase incubated for 8 hrs by luminometric assay relative to control
[5] = molecular target: T2, Keap1/Nrf2 (Homo sapiens) (UniProt Q16236+Q14145); assay: Inhibition of Nrf2-Keap1 (unknown origin) interaction co-expressed in HEK293T cells using D-luciferin as substrate assessed as decrease in luciferase signal intensity incubated for 24 hrs by bioluminescence-based IVIS imaging analysis; conditions: HEK-293T
T2 sequence (Q14145 whole entry, looked up): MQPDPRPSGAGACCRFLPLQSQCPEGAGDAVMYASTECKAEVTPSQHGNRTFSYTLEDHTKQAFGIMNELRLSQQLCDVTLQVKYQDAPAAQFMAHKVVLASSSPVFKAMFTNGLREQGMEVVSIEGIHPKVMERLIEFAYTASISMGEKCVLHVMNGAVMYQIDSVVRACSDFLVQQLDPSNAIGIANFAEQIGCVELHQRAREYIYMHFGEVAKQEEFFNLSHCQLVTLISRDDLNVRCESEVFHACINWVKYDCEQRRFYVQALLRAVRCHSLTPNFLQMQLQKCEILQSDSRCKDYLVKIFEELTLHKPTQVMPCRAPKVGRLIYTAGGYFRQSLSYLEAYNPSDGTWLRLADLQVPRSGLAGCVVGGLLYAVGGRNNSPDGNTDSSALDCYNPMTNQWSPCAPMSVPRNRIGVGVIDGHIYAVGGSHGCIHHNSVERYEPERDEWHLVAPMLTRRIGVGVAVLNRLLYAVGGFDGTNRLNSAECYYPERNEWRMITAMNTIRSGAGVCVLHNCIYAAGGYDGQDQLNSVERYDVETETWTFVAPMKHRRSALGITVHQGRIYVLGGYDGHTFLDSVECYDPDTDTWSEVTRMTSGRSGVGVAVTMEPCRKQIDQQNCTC
T2 sequence (Q16236 whole entry, looked up): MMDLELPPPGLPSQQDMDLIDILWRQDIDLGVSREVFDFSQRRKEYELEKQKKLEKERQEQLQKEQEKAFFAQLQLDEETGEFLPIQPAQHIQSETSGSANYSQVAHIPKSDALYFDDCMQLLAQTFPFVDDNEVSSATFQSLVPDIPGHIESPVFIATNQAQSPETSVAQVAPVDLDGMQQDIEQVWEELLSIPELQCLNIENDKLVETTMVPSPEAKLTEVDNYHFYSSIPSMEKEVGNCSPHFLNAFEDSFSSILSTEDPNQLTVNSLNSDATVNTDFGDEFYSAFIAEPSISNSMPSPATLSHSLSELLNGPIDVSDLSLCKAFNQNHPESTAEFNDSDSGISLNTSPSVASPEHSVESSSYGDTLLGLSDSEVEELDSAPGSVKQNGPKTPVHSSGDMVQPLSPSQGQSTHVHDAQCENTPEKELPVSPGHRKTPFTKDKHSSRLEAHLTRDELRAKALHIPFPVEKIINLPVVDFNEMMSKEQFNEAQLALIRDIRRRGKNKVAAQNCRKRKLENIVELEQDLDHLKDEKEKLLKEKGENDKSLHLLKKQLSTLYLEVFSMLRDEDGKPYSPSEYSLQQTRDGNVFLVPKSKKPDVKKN

[6] = molecular target: T2, Keap1/Nrf2 (Homo sapiens); assay: Inhibition of Nrf2-Keap1 (unknown origin) interaction co-expressed in HEK293T cells using D-luciferin as substrate assessed as decrease in luciferase signal intensity at 0.5 to 10 uM by bioluminescence-based IVIS imaging analysis; conditions: HEK-293T, TDE = time-dependent effect

COc1cc(/C=C/c2ccc(O)cc2)cc(OC)c1
active: Activity [1] Dose-dependent effect | Activity [2] Dose-dependent effect | Activity [3] Dose-dependent effect | Activity [4] Dose-dependent effect | inhibition [5] Dose-dependent effect | inhibition [6] tde
2: fold change (FC) [3] | fold change (FC) [4]
